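1) Cells in 96-well plates. 2) Compound, 48 h, 5 concentrations. 3) Linear interpolation between surrounding doses. 4) Unreached endpoint = highest concentration. Abbreviation: GI50, concentration required for 50% inhibition of growth.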 Activity calls are given as the source filed them. Cut-off read from the data, not from the text of the source: active = GI50 up to about 1.1 µM and inactive = higher.
Experiments:
Experiment in all cases: DTP human tumour cell line panel, 48 h
[1] = tested on: 786-0
[2] = tested on: HOP-92
[3] = tested on: EKVX
[4] = tested on: SW-620
[5] = tested on: XF498
[6] = tested on: CCRF-CEM
[7] = tested on: M19-MEL
[8] = tested on: LOX IMVI
[9] = tested on: M14
[10] = tested on: OVCAR-3
[11] = tested on: DLD-1
[12] = tested on: TK-10
[13] = tested on: SK-MEL-2
[14] = tested on: KM12
[15] = tested on: SNB-19
[16] = tested on: SK-MEL-28
[17] = tested on: SF-295
[18] = tested on: K562
[19] = tested on: HOP-62
[20] = tested on: UACC-62
[21] = tested on: LXFL 529
[22] = tested on: SNB-78
[23] = tested on: SK-OV-3
[24] = tested on: NCI-H522
[25] = tested on: RPMI-8226
[26] = tested on: OVCAR-5
[27] = tested on: SF-268
[28] = tested on: U-251
[29] = tested on: HL-60
[30] = tested on: KM-20L2
[31] = tested on: SK-MEL-5
[32] = tested on: UO-31
[33] = tested on: SR
[34] = tested on: A549
[35] = tested on: Malme-3M
[36] = tested on: A498
[37] = tested on: DMS-114
[38] = tested on: HCT-15
[39] = tested on: NCI-H460
[40] = tested on: NCI-H23
[41] = tested on: SF-539
[42] = tested on: UACC-257
[43] = tested on: DMS-273
[44] = tested on: HCT-116
[45] = tested on: HT-29
[46] = tested on: IGROV-1
[47] = tested on: MOLT-4
[48] = tested on: OVCAR-8
[49] = tested on: CAKI-1
[50] = tested on: HOP-18
[51] = tested on: ACHN
[52] = tested on: SNB-75
[53] = tested on: SN12C
[54] = tested on: OVCAR-4
[55] = tested on: HCC 2998
[56] = tested on: RXF 393
[57] = tested on: COLO 205
[58] = tested on: NCI-H226

CC(C)(Oc1ccc2c(=O)cc(-c3ccc(Cl)cc3)oc2c1)C(=O)Nc1c(Cl)cccc1Cl
GI50 [1]: > 100 µM (inactive)
GI50 [2]: > 100 µM (inactive)
GI50 [3]: > 100 µM (inactive)
GI50 [4]: > 100 µM (inactive)
GI50 [5]: > 100 µM (inactive)
GI50 [6]: > 100 µM (inactive)
GI50 [7]: > 100 µM (inactive)
GI50 [8]: > 100 µM (inactive)
GI50 [9]: > 100 µM (inactive)
GI50 [10]: > 100 µM (inactive)
GI50 [11]: > 100 µM (inactive)
GI50 [12]: > 100 µM (inactive)
GI50 [13]: > 100 µM (inactive)
GI50 [14]: > 100 µM (inactive)
GI50 [15]: > 100 µM (inactive)
GI50 [16]: > 100 µM (inactive)
GI50 [17]: > 100 µM (inactive)
GI50 [18]: 5.98 µM (inactive)
GI50 [19]: > 100 µM (inactive)
GI50 [20]: > 100 µM (inactive)
GI50 [21]: > 100 µM (inactive)
GI50 [22]: > 100 µM (inactive)
GI50 [23]: > 100 µM (inactive)
GI50 [24]: > 100 µM (inactive)
GI50 [25]: > 100 µM (inactive)
GI50 [26]: > 100 µM (inactive)
GI50 [27]: > 100 µM (inactive)
GI50 [28]: > 100 µM (inactive)
GI50 [29]: > 100 µM (inactive)
GI50 [30]: > 100 µM (inactive)
GI50 [31]: 96.6 µM (inactive)
GI50 [32]: 25 µM (inactive)
GI50 [33]: 79.3 µM (inactive)
GI50 [34]: > 100 µM (inactive)
GI50 [35]: > 100 µM (inactive)
GI50 [36]: > 100 µM (inactive)
GI50 [37]: > 100 µM (inactive)
GI50 [38]: 24.2 µM
GI50 [39]: > 100 µM (inactive)
GI50 [40]: > 100 µM (inactive)
GI50 [41]: > 100 µM (inactive)
GI50 [42]: > 100 µM (inactive)
GI50 [43]: > 100 µM (inactive)
GI50 [44]: > 100 µM (inactive)
GI50 [45]: > 100 µM (inactive)
GI50 [46]: > 100 µM (inactive)
GI50 [47]: > 100 µM (inactive)
GI50 [48]: > 100 µM (inactive)
GI50 [49]: > 100 µM (inactive)
GI50 [50]: > 100 µM (inactive)

CC(=O)N1C/C(=C\c2ccccc2)C(=O)/C(=C/c2ccccc2)C1
GI50 [1]: 15.6 µM (inactive)
GI50 [51]: 16.9 µM (inactive)
GI50 [3]: 24 µM (inactive)
GI50 [4]: 2.67 µM (inactive)
GI50 [5]: 23.8 µM (inactive)
GI50 [6]: 2.82 µM (inactive)
GI50 [7]: 3.34 µM (inactive)
GI50 [52]: 20 µM (inactive)
GI50 [8]: 3.43 µM (inactive)
GI50 [9]: 6.98 µM (inactive)
GI50 [10]: 6.43 µM (inactive)
GI50 [11]: 8.71 µM (inactive)
GI50 [12]: 18.2 µM (inactive)
GI50 [13]: 24.9 µM (inactive)
GI50 [14]: 3.65 µM (inactive)
GI50 [15]: 16.8 µM (inactive)
GI50 [16]: 13.2 µM (inactive)
GI50 [17]: 13.4 µM (inactive)
GI50 [18]: 2.89 µM (inactive)
GI50 [19]: 11.4 µM (inactive)
GI50 [20]: 14.4 µM (inactive)
GI50 [21]: 9.4 µM (inactive)
GI50 [22]: 17.2 µM (inactive)
GI50 [23]: 22.5 µM (inactive)
GI50 [24]: 12.3 µM (inactive)
GI50 [53]: 14.4 µM (inactive)
GI50 [54]: 17.6 µM (inactive)
GI50 [25]: 0.415 µM (active)
GI50 [26]: 19.4 µM (inactive)
GI50 [27]: 23.2 µM (inactive)
GI50 [28]: 15.6 µM (inactive)
GI50 [29]: 1.68 µM (inactive)
GI50 [30]: 15.6 µM (inactive)
GI50 [31]: 6.19 µM (inactive)
GI50 [55]: 10.9 µM (inactive)
GI50 [56]: 16.2 µM (inactive)
GI50 [32]: 19.7 µM (inactive)
GI50 [33]: 2.99 µM (inactive)
GI50 [34]: 23.1 µM (inactive)
GI50 [35]: 18.3 µM (inactive)
GI50 [36]: 16.8 µM (inactive)
GI50 [38]: 8.38 µM
GI50 [39]: 17.4 µM (inactive)
GI50 [40]: 19 µM (inactive)
GI50 [41]: 19.3 µM (inactive)
GI50 [42]: 6.9 µM (inactive)
GI50 [43]: 4.85 µM (inactive)
GI50 [44]: 2.51 µM (inactive)
GI50 [45]: 3.04 µM (inactive)
GI50 [46]: 17.6 µM (inactive)
GI50 [57]: 17.6 µM (inactive)
GI50 [47]: 4.2 µM (inactive)
GI50 [48]: 7.8 µM (inactive)
GI50 [49]: 17.6 µM (inactive)
GI50 [50]: 18.8 µM (inactive)
GI50 [58]: 17.4 µM (inactive)

COc1ccc2cc3c4cc(OC)c(OC)cc4ccn3c2c1
GI50 [1]: > 100 µM (inactive)
GI50 [51]: > 100 µM (inactive)
GI50 [2]: > 100 µM (inactive)
GI50 [3]: > 100 µM (inactive)
GI50 [4]: > 100 µM (inactive)
GI50 [5]: > 100 µM (inactive)
GI50 [6]: > 100 µM (inactive)
GI50 [7]: > 100 µM (inactive)
GI50 [8]: > 100 µM (inactive)
GI50 [11]: > 100 µM (inactive)
GI50 [12]: > 100 µM (inactive)
GI50 [13]: > 100 µM (inactive)
GI50 [14]: > 100 µM (inactive)
GI50 [15]: > 100 µM (inactive)
GI50 [16]: > 100 µM (inactive)
GI50 [17]: > 100 µM (inactive)
GI50 [18]: > 100 µM (inactive)
GI50 [19]: > 100 µM (inactive)
GI50 [20]: > 100 µM (inactive)
GI50 [21]: > 100 µM (inactive)
GI50 [22]: > 100 µM (inactive)
GI50 [23]: > 100 µM (inactive)
GI50 [24]: > 100 µM (inactive)
GI50 [53]: > 100 µM (inactive)
GI50 [54]: > 100 µM (inactive)
GI50 [26]: > 100 µM (inactive)
GI50 [27]: > 100 µM (inactive)
GI50 [28]: > 100 µM (inactive)
GI50 [29]: > 100 µM (inactive)
GI50 [31]: > 100 µM (inactive)
GI50 [55]: > 100 µM (inactive)
GI50 [56]: > 100 µM (inactive)
GI50 [32]: > 100 µM (inactive)
GI50 [33]: > 100 µM (inactive)
GI50 [34]: > 100 µM (inactive)
GI50 [35]: > 100 µM (inactive)
GI50 [36]: > 100 µM (inactive)
GI50 [37]: > 100 µM (inactive)
GI50 [39]: > 100 µM (inactive)
GI50 [40]: > 100 µM (inactive)
GI50 [41]: > 100 µM (inactive)
GI50 [42]: > 100 µM (inactive)
GI50 [43]: > 100 µM (inactive)
GI50 [45]: > 100 µM (inactive)
GI50 [46]: > 100 µM (inactive)
GI50 [57]: > 100 µM (inactive)
GI50 [47]: > 100 µM (inactive)
GI50 [48]: > 100 µM (inactive)
GI50 [49]: > 100 µM (inactive)
GI50 [50]: > 100 µM (inactive)
GI50 [58]: > 100 µM (inactive)

From ChEMBL document CHEMBL1201862, “PubChem BioAssay data set” (2004)
